Measurements from patent publication US9822115B2, “Nitrogen containing compounds and their use as antibacterial agents” (WOCKHARDT LIMITED, priority 2014, dated 2017).
In brackets after ≈: the same amount, converted by molar mass. Where two headings read alike, the source gives them in different places.

Tests used:
[1] = tested on: E. coli NCTC 13353 (CTX-M15, OXA-1); test: Antibacterial activity, MIC by agar dilution (CLSI); format: cell-based; settings: E. Coli NCTC 13353 (CTX-M15, OXA-1)
How it was run: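 CLSI agar dilution on Mueller Hinton agar containing doubling compound dilutions, inoculated at about 10^4 CFU/spot from fresh cultures. Plates were incubated 18 h at 37 °C in ambient air before growth scoring. MIC is reported in mcg/ml.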

[2] = tested on: K. pneumoniae H521 (KPC, SHV, TEM); test: as above; format: cell-based; settings: Table 2, K. pneumoniae H521 (KPC, SHV, TEM)
How it was run: (§1)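 Agar dilution per CLSI on Mueller Hinton agar with doubling compound dilutions, about 10^4 CFU/spot by multipoint inoculator. Plates incubated 16-20 h at 35±2° C in ambient air; procedure also gives 37° C for 18 h. MIC (mcg/ml) scored as growth or no growth.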

[3] = tested on: K. pneomoniae S48 (NDM, SHV, TEM); test: as above; format: cell-based, K. pneumoniae; settings: Table 2, K. pneomoniae S48 (NDM, SHV, TEM)
How it was run: as §1

[4] = target: T1, Class A beta-lactamase, K. pneumoniae ATCC 700603 (SHV 18) (Klebsiella pneumoniae, UniProt P0AD64, E235K/G234A/R39S); test: biochemical
T1 construct: preincubated mixture of crude enzyme and the agents; endogenous in cells; host or cells: K. pneumoniae ATCC 700603
How it was run: (§2)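 Crude enzyme preincubated with inhibitor 10 min at 37 °C, then nitrocefin (100 uM) added for 5 min. Absorbance read at 485 nm; IC50 obtained from sigmoidal dose-response fit of absorbance versus concentration.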

[5] = tested on: T2, Class C beta-lactamase, E. coli M50 (CMY/DHA); format: biochemical; settings: read-out: Beta-lactamase enzyme inhibition IC50
T2 construct: no borders, tags or purification printed
Experimental: Determination of enzyme inhibition activity: Concentration of the inhibitor required to inhibit 50% of enzymatic activity was measured by adding a chromogenic substrate, Nitrocefin (100 uM, 5 min) to the preincubated mixture of crude enzyme and the agents (37° C., 10 min). Absorbance was measured at 485 nm by UV-spectrophotometer. The IC50 was calculated by plotting absorbance against concentration through Sigmoidal dose response curve using Graph Pad software.
The enzyme inhibition was expressed as IC50.

[6] = target: T3, Class D beta-lactamase, A. baumannii NCTC 13301 (OXA 23) (Acinetobacter baumannii, UniProt Q9L4P2); test: Beta-lactamase enzyme inhibition (nitrocefin, crude enzyme); format: biochemical; settings: Class D A. baumannii NCTC 13301 (OXA 23); read-out: Beta-lactamase enzyme inhibition IC50
T3 construct: preincubated mixture of crude enzyme and the agents; endogenous in cells; host or cells: A. baumannii NCTC 13301
How it was run: as §2

E. coli M50 = test: Zone of inhibition, compound alone and in combination with ceftazidime (agar well); format: cell-based; settings: for Diameter of Zone of Inhibition: E. coli M50; for zone of inhibition at 0.5 µg/disc: 0.5 μg/well; for zone of inhibition at 1 µg/disc: 1 μg/well
Experimental: (§3) Determination of antibacterial activity of combinations according to invention: In a typical experiment, two sets of plates containing growth media (Molten Mueller Hilton Agar) and bacterial strains were prepared. One set of plates was taken as control (without ceftazidime) and other set contained ceftazidime. The media was allowed to solidify and wells were punched later. A two-fold serial dilution range of each of the compounds according to invention was prepared and 50 μl of each of the dilution was added into the punched well. […] The Table 5 provides the antibacterial activity of the combination comprising compounds according to invention and ceftazidime.

E. coli NCTC 13353 = test: as above; format: cell-based; settings: for zone of inhibition at 0.25 µg/disc / zone of inhibition at 0.5 µg/disc / zone of inhibition at 1 µg/disc / zone of inhibition at […]: Escherichia coli, NCTC13353, E. coli NCTC 13353, read-out: Diameter of Zone of Inhibition; for zone of inhibition at 0.5 µg/disc: 0.5 μg/well; for zone of inhibition at 1 µg/disc: 1 μg/well
Experimental: as §3

[7] = Escherichia coli, NCTC13353, Table 2, read-out: MIC
[8] = Klebsiella pneumoniae, read-out: MIC
[9] = Escherichia coli, M50, E. coli M50, Compound + Ceftazidime (10 μg/ml), 0.25 μg/well, read-out: Diameter of Zone of Inhibition
[10] = Escherichia coli, M50, E. coli M50, Compound + Ceftazidime (10 μg/ml), read-out: Diameter of Zone of Inhibition
[11] = Escherichia coli, M50, E. coli M50, Compound alone, read-out: Diameter of Zone of Inhibition
[12] = Compound + Ceftazidime (10 μg/ml), 0.25 μg/well
[13] = Compound + Ceftazidime (10 μg/ml)

T3 sequence (Q9L4P2 18-273): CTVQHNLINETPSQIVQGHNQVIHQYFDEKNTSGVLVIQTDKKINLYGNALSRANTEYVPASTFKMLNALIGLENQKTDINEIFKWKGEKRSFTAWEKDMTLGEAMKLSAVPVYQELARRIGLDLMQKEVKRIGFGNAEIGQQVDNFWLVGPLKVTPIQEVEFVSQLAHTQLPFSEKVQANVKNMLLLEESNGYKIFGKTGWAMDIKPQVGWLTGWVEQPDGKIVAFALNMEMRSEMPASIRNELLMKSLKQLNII
T1 sequence (P0AD64 22-286 R39S/G234A/E235K): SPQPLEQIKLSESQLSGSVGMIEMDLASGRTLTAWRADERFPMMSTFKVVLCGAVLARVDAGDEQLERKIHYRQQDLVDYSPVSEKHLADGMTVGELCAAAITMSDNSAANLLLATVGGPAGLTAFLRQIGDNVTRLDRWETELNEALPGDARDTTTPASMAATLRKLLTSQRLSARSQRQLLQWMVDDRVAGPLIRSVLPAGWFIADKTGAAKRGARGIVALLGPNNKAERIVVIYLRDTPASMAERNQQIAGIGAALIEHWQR

SMILES	MIC [1, 7]	MIC [2, 8]	MIC [3, 8]	IC50 [4]	IC50 [5]	IC50 [6]	zone of inhibition at 0.25 µg/disc (E. coli M50; [9])	zone of inhibition at 0.5 µg/disc (E. coli M50; [10])	zone of inhibition at 1 µg/disc (E. coli M50; [10])	zone of inhibition at 0.5 µg/disc (E. coli M50; [11])	zone of inhibition at 1 µg/disc (E. coli M50; [11])	zone of inhibition at 0.25 µg/disc (E. coli NCTC 13353; [12])	zone of inhibition at 0.5 µg/disc (E. coli NCTC 13353; [13])	zone of inhibition at 1 µg/disc (E. coli NCTC 13353; [13])	zone of inhibition at […] (E. coli NCTC 13353; [13])	zone of inhibition at 0.5 µg/disc (E. coli NCTC 13353; Compound alone)	zone of inhibition at 1 µg/disc (E. coli NCTC 13353; Compound alone)	also measured
C[C@@H](N)COc1ccccc1CC(=O)NNC(=O)[C@@H]1CC[C@@H]2CN1C(=O)N2OS(=O)(=O)O [Example 3, (2S,5R)-Sulfuric Acid mono-[2-(N′-{2-[2-((R)-2-amino-propoxy)-phenyl]-acetyl}-hydrazinocarbonyl)-7-oxo-1,6-diaza-bicyclo[3.2.1]oct-6-yl]ester]	1 µg/mL (≈ 2.12 µM)	2 µg/mL (≈ 4.24 µM)	1 µg/mL (≈ 2.12 µM)	80 nM	73 nM	2020 nM	10.5 mm	14 mm	17 mm	11.5 mm	14 mm	14.5 mm	17.5 mm	21.5 mm	11 mm	10 mm	13 mm	Diameter of Zone of Inhibition (E. coli M50; Compound + Ceftazidime (10 μg/ml), […]): No growth; Diameter of Zone of Inhibition (E. coli M50; Compound alone, 0.25 μg/well): No growth; Diameter of Zone of Inhibition (E. coli NCTC 13353; E. coli NCTC 13353, Compound alone, 0.25 μg/well): No growth
NCc1ccc(CC(=O)NNC(=O)[C@@H]2CC[C@@H]3CN2C(=O)N3OS(=O)(=O)O)cc1 [Example 12, (2S,5R)-sulfuric acid mono-[2-(N′-(4-aminomethyl-phenyl-acetyl)-hydrazinocarbonyl)-7-oxo-1,6-diaza-bicyclo[3.2.1]oct-6-yl]ester]	0.25 µg/mL (≈ 0.585 µM)	0.25 µg/mL (≈ 0.585 µM)	0.25 µg/mL (≈ 0.585 µM)	144 nM	13 nM	539 nM	19 mm	21 mm	23 mm	18 mm	19.5 mm	22 mm	26 mm	29 mm	19 mm	17 mm	19 mm	zone of inhibition at […] (E. coli M50; Escherichia coli, M50, E. coli M50, Compound + Ceftazidime (10 μg/ml), […], read-out: Diameter of Zone of Inhibition): 16 mm; zone of inhibition at 0.25 µg/disc (E. coli M50; Escherichia coli, M50, E. coli M50, Compound alone, 0.25 μg/well, read-out: Diameter of Zone of Inhibition): 15 mm; zone of inhibition at 0.25 µg/disc (E. coli NCTC 13353; Compound alone, 0.25 μg/well): 15.5 mm
O=C(Cc1ccccc1O[C@H]1CCNC1)NNC(=O)[C@@H]1CC[C@@H]2CN1C(=O)N2OS(=O)(=O)O [Example 63, (2S,5R)-sulfuric acid mono-[2-(N′-{2-[2-((S)-pyrrolidin-3-oxy)-phenyl]-acetyl}-hydrazinocarbonyl)-7-oxo-1,6-diaza-bicyclo[3.2.1]oct-6-yl]ester]	2 µg/mL (≈ 4.14 µM)	8 µg/mL (≈ 16.5 µM)	2 µg/mL (≈ 4.14 µM)	79 nM	102 nM	4120 nM												
CC(OC(=O)NCCOc1ccccc1CC(=O)NNC(=O)[C@@H]1CC[C@@H]2CN1C(=O)N2OS(=O)(=O)[O-])OC(=O)C(C)C.[Na+] (stereo partly drawn) [Example 65, sodium salt of isobutyric acid 1-[2-(2-{2-oxo-2-[N′-((2S,5R)-6-sulphooxy-7-oxo-1,6-diaza-bicyclo[3.2.1]octane-2-carbonyl)-hydrazino]-ethyl}-phenoxy)-ethylcarbamoyloxy]-ethyl ester]					5 nM	537 nM												MIC ([1]; Table 2): >32 µg/mL; MIC [2]: >32 µg/mL; MIC [3]: >32 µg/mL; IC50 ([4]; Class A K. pneumoniae ATCC 700603 (SHV 18), read-out: Beta-lactamase enzyme inhibition IC50): 8 nM
